Experimental data taken from patent publication US11136296B2, “Substituted N-arylethyl-2-arylquinoline-4-carboxamides and use thereof” (Bayer Aktiengesellschaft, priority 2017, dated 2021).

Molecular target: FP receptor (Homo sapiens (Human), UniProt P43088)
Assay: In vitro test of inhibition of human FP receptor activity (PGF2α-induced calcium flux in FP-expressing CHEM1 cells)
Assay type: cell-based
Settings: PGF2α-induced (2 nM) calcium flux in FP-expressing CHEM1 cells; some as mean values from multiple determinations
Source text: Table 1 below lists the IC50 values from this assay for individual working examples of the invention (some as mean values from multiple independent individual determinations): […]

FP receptor, sequence (P43088 whole entry): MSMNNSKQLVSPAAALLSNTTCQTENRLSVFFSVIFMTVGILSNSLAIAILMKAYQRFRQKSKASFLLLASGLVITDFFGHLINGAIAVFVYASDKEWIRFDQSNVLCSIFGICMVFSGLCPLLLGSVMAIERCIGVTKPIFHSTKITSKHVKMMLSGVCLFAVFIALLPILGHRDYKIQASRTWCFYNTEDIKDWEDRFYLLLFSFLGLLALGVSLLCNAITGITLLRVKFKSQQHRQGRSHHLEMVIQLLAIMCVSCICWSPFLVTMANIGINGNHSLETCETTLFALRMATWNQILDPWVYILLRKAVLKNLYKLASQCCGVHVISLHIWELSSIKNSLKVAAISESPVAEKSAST

Row | Structure (SMILES) | IC50
1 | Cc1c(-c2ccccc2)nc2ccc(Br)cc2c1C(=O)NCC(CCC(=O)O)c1ccccn1 (racemic) [Example 224, (+/−)-5-{[(6-Bromo-3-methyl-2-phenylquinolin-4-yl)carbonyl]amino}-4-(pyridin-2-yl)pentanoic Acid] | 100 nM
2 | Cc1c(-c2ccccc2)nc2ccc(Br)cc2c1C(=O)NCC(C)(CC(=O)O)c1ccccc1F (single isomer, unassigned; (+)) [Example 115, (+)-4-{[(6-Bromo-3-methyl-2-phenylquinolin-4-yl)carbonyl]amino}-3-(2-fluorophenyl)-3-methylbutanoic Acid] | 31 nM
3 | Cc1c(-c2ccccc2)nc2ccc(Br)cc2c1C(=O)NCC(SCC(=O)O)c1ccccc1Cl (single isomer, unassigned; (+)) [Example 195, (+)-{[2-{[(6-Bromo-3-methyl-2-phenylquinolin-4-yl)carbonyl]amino}-1-(2-chlorophenyl)ethyl]sulfanyl}acetic Acid] | 8 nM
4 | Cc1c(-c2ccccc2)nc2ccc(Br)cc2c1C(=O)NCC(CC(=O)O)c1c(F)cccc1Cl (racemic) [Example 87, (+/−)-4-{[(6-Bromo-3-methyl-2-phenylquinolin-4-yl)carbonyl]amino}-3-(2-chloro-6-fluorophenyl)butanoic Acid] | 23 nM
5 | Cc1c(-c2ccccc2)nc2ccc(Br)cc2c1C(=O)NC(C)C(CC(=O)O)c1ccccc1Cl (single isomer, unassigned; (+)) [Example 150, (+)-4-{[(6-Bromo-3-methyl-2-phenylquinolin-4-yl)carbonyl]amino}-3-(2-chlorophenyl)pentanoic Acid] | 960 nM
6 | Cc1c(-c2ccccc2)nc2ccc(Br)cc2c1C(=O)NCC(CCC(=O)O)c1c(F)cccc1C(F)(F)F (racemic) [Example 225, (+/−)-5-{[(6-Bromo-3-methyl-2-phenylquinolin-4-yl)carbonyl]amino}-4-[2-fluoro-6-(trifluoromethyl)phenyl]pentanoic Acid] | 4.7 nM
7 | Cc1c(-c2ccccc2)nc2ccc(Br)cc2c1C(=O)NCC(c1ccccc1Cl)N(C)CC(=O)O (racemic) [Example 187, (+/−)-N-[2-{[(6-Bromo-3-methyl-2-phenylquinolin-4-yl)carbonyl]amino}-1-(2-chlorophenyl)ethyl]-N-methylglycine] | 36 nM
8 | Cc1c(-c2ccccc2)nc2ccc(Br)cc2c1C(=O)NCC(OCC(=O)O)c1ccccc1Cl (single isomer, unassigned; (+)) [Example 192, (+)-[2-{[(6-Bromo-3-methyl-2-phenylquinolin-4-yl)carbonyl]amino}-1-(2-chlorophenyl)ethoxy]acetic Acid] | 42 nM
9 | Cc1c(-c2ccccc2)nc2ccc(Br)cc2c1C(=O)NCC(C)(CCC(=O)O)c1cc(F)ccc1Cl (single isomer, unassigned; (-)) [Example 170, (−)-5-{[(6-Bromo-3-methyl-2-phenylquinolin-4-yl)carbonyl]amino}-4-(2-chloro-5-fluorophenyl)-4-methylpentanoic Acid] | 110 nM
10 | COc1ccccc1C(C)(CNC(=O)c1c(C)c(-c2ccccc2)nc2ccc(Br)cc12)CC(=O)O (racemic) [Example 120, (+/−)-4-{[(6-Bromo-3-methyl-2-phenylquinolin-4-yl)carbonyl]amino}-3-(2-methoxyphenyl)-3-methylbutanoic Acid] | 30 nM
11 | COc1ccccc1[C@@H](CNC(=O)c1c(C)c(-c2ccccc2)nc2ccc(Br)cc12)N1CCC(C(=O)O)C1 (stereo partly shown) [compound 248] | 13 nM
12 | Cc1c(-c2ccccc2)nc2ccc(Br)cc2c1C(=O)NCC(SCC(=O)O)c1ccccc1Cl (single isomer, unassigned; (-)) [Example 196, (−)-{[2-{[(6-Bromo-3-methyl-2-phenylquinolin-4-yl)carbonyl]amino}-1-(2-chlorophenyl)ethyl]sulfanyl}acetic Acid] | 12 nM
13 | Cc1c(-c2ccccc2)nc2ccc(Br)cc2c1C(=O)NCC(C)(CCCC(=O)O)c1ccccc1Cl (single isomer, unassigned; (-)) [Example 241, (−)-6-{[(6-Bromo-3-methyl-2-phenylquinolin-4-yl)carbonyl]amino}-5-(2-chlorophenyl)-5-methylhexanoic Acid] | 68 nM
14 | Cc1c(-c2ccccc2)nc2ccc(Br)cc2c1C(=O)NCC(CC(=O)O)c1ccc(Cl)cc1 (single isomer, unassigned; (+)) [Example 67, (+)-4-{[(6-Bromo-3-methyl-2-phenylquinolin-4-yl)carbonyl]amino}-3-(4-chlorophenyl)butanoic Acid] | 370 nM
15 | Cc1c(-c2ccccc2)nc2ccc(Br)cc2c1C(=O)NCC(CCC(=O)O)c1c(F)c(F)cc(F)c1F (single isomer, unassigned; (-)) [Example 229, (−)-5-{[(6-Bromo-3-methyl-2-phenylquinolin-4-yl)carbonyl]amino}-4-(2,3,5,6-tetrafluorophenyl)pentanoic Acid] | 2.7 nM
16 | Cc1c(-c2ccccc2)nc2ccc(Br)cc2c1C(=O)NCC(O)(C(=O)O)c1ccccc1 (single isomer, unassigned; (-)) [Example 21, (−)-3-{[(6-Bromo-3-methyl-2-phenylquinolin-4-yl)carbonyl]amino}-2-hydroxy-2-phenylpropanoic Acid] | 170 nM
17 | Cc1c(-c2ccccc2)nc2ccc(Br)cc2c1C(=O)NCC(C)(CC(=O)O)c1ccccc1Cl (racemic) [Example 114, (+/−)-4-{[(6-Bromo-3-methyl-2-phenylquinolin-4-yl)carbonyl]amino}-3-(2-chlorophenyl)-3-methylbutanoic Acid] | 18 nM
18 | Cc1c(-c2ccccc2)nc2ccc(Br)cc2c1C(=O)NCC(CCC(=O)O)c1cc(F)cc(F)c1F (single isomer, unassigned) [Example 232, 5-{[(6-Bromo-3-methyl-2-phenylquinolin-4-yl)carbonyl]amino}-4-(2,3,5-trifluorophenyl)pentanoic Acid] | 8.8 nM
19 | Cc1c(-c2ccccc2)nc2ccc(Br)cc2c1C(=O)NCC(CCC(=O)O)c1c(F)cccc1Cl (racemic) [Example 157, (+/−)-5-{[(6-Bromo-3-methyl-2-phenylquinolin-4-yl)carbonyl]amino}-4-(2-chloro-6-fluorophenyl)pentanoic Acid] | 3.7 nM

Now from value to compound:

Row | IC50 | Structure (SMILES)
20 | 220 nM | Cc1c(-c2ccccc2)nc2ccc(Br)cc2c1C(=O)NCC(CC(=O)O)c1ccccc1 (single isomer, unassigned; (+)) [Example 65, (+)-4-{[(6-Bromo-3-methyl-2-phenylquinolin-4-yl)carbonyl]amino}-3-phenylbutanoic Acid]
21 | 340 nM | Cc1c(-c2ccccc2)nc2ccc(Br)cc2c1C(=O)NCC(CC(=O)O)c1ccccc1 (racemic) [Example 63, (+/−)-4-{[(6-Bromo-3-methyl-2-phenylquinolin-4-yl)carbonyl]amino}-3-phenylbutanoic Acid]
22 | 86 nM | Cc1c(-c2ccccc2)nc2ccc(Br)cc2c1C(=O)NCC(CC(=O)O)c1cccc(Cl)c1 (single isomer, unassigned) [Example 73, 4-{[(6-Bromo-3-methyl-2-phenylquinolin-4-yl)carbonyl]amino}-3-(3-chlorophenyl)butanoic Acid]
23 | 19 nM | Cc1c(-c2ccccc2)nc2ccc(Br)cc2c1C(=O)NCC(CCC(=O)O)c1ccccc1F (single isomer, unassigned; (+)) [Example 177, (+)-5-{[(6-Bromo-3-methyl-2-phenylquinolin-4-yl)carbonyl]amino}-4-(2-fluorophenyl)pentanoic Acid]
24 | 26 nM | COc1ccccc1C(CCC(=O)O)CNC(=O)c1c(C)c(-c2ccccc2)nc2ccc(Br)cc12 (single isomer, unassigned; (-)) [Example 167, (−)-5-{[(6-Bromo-3-methyl-2-phenylquinolin-4-yl)carbonyl]amino}-4-(2-methoxyphenyl)pentanoic Acid]
25 | 4.1 nM | Cc1c(-c2ccccc2)nc2ccc(Br)cc2c1C(=O)NCC(CCC(=O)O)c1ccccc1OC(F)F (single isomer, unassigned; (-)) [Example 179, (−)-5-{[(6-Bromo-3-methyl-2-phenylquinolin-4-yl)carbonyl]amino}-4-[2-(difluoromethoxy)phenyl]pentanoic Acid]
26 | 45 nM | Cc1c(-c2ccccc2)nc2ccc(Br)cc2c1C(=O)NCC(CC(=O)O)c1cccc(Cl)c1 (racemic) [Example 72, (+/−)-4-{[(6-Bromo-3-methyl-2-phenylquinolin-4-yl)carbonyl]amino}-3-(3-chlorophenyl)butanoic Acid]
27 | 80 nM | Cc1cccc(C(CNC(=O)c2c(C)c(-c3ccccc3)nc3ccc(Br)cc23)CC(=O)O)c1 (racemic) [Example 93, (+/−)-4-{[(6-Bromo-3-methyl-2-phenylquinolin-4-yl)carbonyl]amino}-3-(3-methylphenyl)butanoic Acid]
28 | 85 nM | Cc1ccccc1C(CNC(=O)c1c(C)c(-c2ccccc2)nc2ccc(Br)cc12)CC(=O)O (single isomer, unassigned; (+)) [Example 77, (+)-4-{[(6-Bromo-3-methyl-2-phenylquinolin-4-yl)carbonyl]amino}-3-(2-methylphenyl)butanoic Acid]
29 | 24 nM | COc1ccccc1C(CNC(=O)c1c(C)c(-c2ccccc2)nc2ccc(Br)cc12)C(F)(F)C(=O)O (racemic) [Example 141, (+/−)-4-{[(6-Bromo-3-methyl-2-phenylquinolin-4-yl)carbonyl]amino}-2,2-difluoro-3-(2-methoxyphenyl)butanoic Acid]
30 | 130 nM | CCOc1ccccc1C(CNC(=O)c1c(C)c(-c2ccccc2)nc2ccc(Br)cc12)CC(=O)O (racemic) [Example 129, (+/−)-4-{[(6-Bromo-3-methyl-2-phenylquinolin-4-yl)carbonyl]amino}-3-(2-ethoxyphenyl)butanoic Acid]
31 | 32 nM | Cc1c(-c2ccccc2)nc2ccc(Br)cc2c1C(=O)NCC(CC(=O)O)c1ccccc1OC(F)(F)F (single isomer, unassigned; (+)) [Example 101, (+)-4-{[(6-Bromo-3-methyl-2-phenylquinolin-4-yl)carbonyl]amino}-3-[2-(trifluoromethoxy)phenyl]butanoic Acid]
